Tests used:
BCA = biological target: T1, BCA (Bos taurus, UniProt P00921); assay: Effect of DNSA present in the denaturing solution on rate of SDS denaturation; design: species or system bovine; conditions: DNSA present with the protein in the denaturing SDS solution
T1 construct: purchased Sigma-Aldrich (St. Louis, Mo.)
Description: The kinetics of unfolding were determined as follows. The rates of denaturation of BCA and BCA-Ac18 were measured by incubating the protein (200 nM) in solutions of different concentrations of SDS. Immediately prior to the measurement, an aliquot of solution containing protein and SDS was mixed with a solution containing DNSA and the same concentration of SDS; this protocol minimized the possibility that DNSA might stabilize the native conformation of the protein, and influence the rate of its denaturation. When BCA was denatured in concentrations of SDS of 4 mM and higher, DNSA was added to the original, denaturing solution because the rate of denaturation was too fast to follow with manual mixing of aliquots of protein and DNSA. It was observed that DNSA, when present with the protein in the denaturing solution, reduced the rates of denaturation by factors of about 2-10.

Surface area calculation = assay: Surface area calculation
Description: A surface area calculation was also performed to determine the change in surface area between the conversion of BCA to BCA-Ac18 and BCA to BCA-Hex18. It was calculated that the reaction with acetic anhydride changed the surface area of BCA by 400 Å^2 and the reaction with hexanoic anhydride changed the surface area of BCA by 1180 Å^2. Since this change is a factor of 2.9, it can be concluded that this estimate that each modification with hexanoic anhydride adds three times the amount of surface area than modification with acetic anhydride is justified.

T1 sequence (P00921 whole entry): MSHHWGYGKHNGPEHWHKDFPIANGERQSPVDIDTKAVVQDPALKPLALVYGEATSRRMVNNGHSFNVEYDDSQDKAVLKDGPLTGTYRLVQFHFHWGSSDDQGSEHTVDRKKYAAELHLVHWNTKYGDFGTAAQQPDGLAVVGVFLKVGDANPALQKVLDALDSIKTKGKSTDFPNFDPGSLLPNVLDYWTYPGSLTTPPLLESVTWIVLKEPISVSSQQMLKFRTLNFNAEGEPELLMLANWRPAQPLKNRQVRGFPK

factor by which rates of denaturation are reduced (BCA) | Compound | ratio of surface area change, hexanoic vs acetic anhydride (Surface area calculation)
2-10 | CN(C)c1cccc2c(S(N)(=O)=O)cccc12 [DNSA, Dansyl amide] | 
 | BCA-Hex18: BCA with all 18 lysines modified with hexanoic anhydride | 2.9
